Measurements: patent US20070178054A1, “ORAL ANTIMICROBIAL COMPOSITION” (priority 2005, published 2007)

What was measured:
Type in all cases: cell-based, Streptococcus mutans
[1] = system: biofilm-embedded S. mutans; assay: Survival of biofilm-embedded S. mutans (CFU counts), CSP compositions, 12-well plates; details: 20 h biofilm, combination of both
Procedure: (§1) Streptococcus mutans UA159 strain was used in these Examples. S. mutans strain UA159 was grown in Todd-Hewitt broth containing 0.3% yeast extract (THYE) at pH 7.0 and was subcultured routinely on THYE agar plates and incubated at 37° C. in an anaerobic chamber (5% CO2). In liquid media, cultures were incubated in closed screw-cap tubes without agitation at 37° C. in an anaerobic chamber (5% CO2)
(§2) Biofilms were developed in 12-well polystyrene microtiter plates to provide a rapid and simple method for assaying biofilm-embedded live oral bacteria (e.g. S. mutans). A 4× diluted THYE medium supplemented with final concentration of 0.01% hog gastric mucin (Sigma) was used as biofilm medium (BM). Fonnation of biofilms was initiated by inoculating 20 μl of S. mutans cell suspension (1.2×10^7 CFU/ml) into each well containing 2 ml of BM and four wells were set up: two for control and two for treatment with compositions comprising synthetic CSP and Nisin or chlorhexidine or xylitol or triclosan or citric acid or zinc citrate or sodium fluoride or oleanolic acid or lansoprazole or epigallocatechin gallate or chitosan. After cultures were incubated at 37° C. for 20 hours under an anaerobic condition, fluid media were removed. The wells were rinsed once with 10 mM PBS buffer (pH 7.2) and biofilm-embedded cells were collected in two ml PBS buffer, gently sonicated for 15 seconds, serially diluted, spread on THYE plates, and incubated at 37° C. under anaerobic conditions. Biofilm-embedded viable cells were quantified by colony forming unit (CFU) counts after 48 hours of incubation.

[2] = system: biofilm-embedded S. mutans; assay: Survival of biofilm-embedded S. mutans (CFU counts), E2 peptide compositions, 12-well plates; details: 20 h biofilm, E2 20 μg/ml, combination of both
Procedure: as §1
as §2, with “developed on” for “developed in”, “mucin (Sigma, St. Louis, Mo.)” for “mucin (Sigma)”, “(BM). Formation” for “(BM). Fonnation”, “synthetic E2 peptide” for “synthetic CSP”, “or E2 and CHX.” for “or chlorhexidine or xylitol or triclosan or citric acid or zinc citrate or sodium fluoride or oleanolic acid or lansoprazole or epigallocatechin gallate or chitosan.”, “fluid medium was” for “fluid media were”

[3] = system: S. mutans UA159; assay: S. mutans biofilm formation, crystal violet staining (OD 630 nm); details: 24 h, E2 20 μg/ml, combination of both
Procedure: as §1
(§3) Wells without cells were used as blank controls.
(§4) The microtiter plates were then incubated at 37° C. in an anaerobic chamber (5% CO2) for 24 hours without agitation. After the incubation, the growth was measured at 600 nm with a microplate reader. The planktonic cells were carefully removed, and plates were air dried overnight. The plates were then stained with 0.4% crystal violet for 10 minutes, rinsed with sterile distilled water and air dried for 15 minutes. Biofilm was quantified by measuring the absorbance of stained biofilm at 630 nm with a microplate reader.

[4] = system: S. mutans UA159; assay: S. mutans growth in 96-well microtiter plate (OD 600 nm); details: 24 h, E2 20 μg/ml, combination of both
Procedure: as §1, §3, §4

[5] = system: biofilm-embedded S. mutans; assay: Survival of biofilm-embedded S. mutans (CFU counts), E2 peptide compositions, 12-well plates; details: 20 h biofilm, E2 20 μg/ml, combination of both; remark: listed apart in the source
[6] = CSP 40 μg/ml, chlorhexidine 0.15 μg/ml, control 1.4 × 10^6
[7] = chlorhexidine 0.15 μg/ml, control 1.4
[8] = citric acid 1200 μg/ml, control 1.7
[9] = CSP 40 μg/ml, citric acid 1200 μg/ml, control 3.4 × 10^5
[10] = citric acid 1.2 mg/ml, control 1.23
[11] = citric acid 1.2 mg/ml, control 0.34
[12] = lansoprazole 37 μg/ml, control 8
[13] = CSP 40 μg/ml, lansoprazole 37 μg/ml, control 1.2 × 10^6
[14] = lansoprazole 0.1 mM, control 1.32
[15] = lansoprazole 0.1 mM, control 0.38
[16] = CSP 40 μg/ml, oleanolic acid 250 μg/ml, control 4 × 10^5
[17] = sodium fluoride 800 μg/ml, control 2.9
[18] = CSP 40 μg/ml, sodium fluoride 250 μg/ml, control 2.6 × 10^5
[19] = sodium fluoride 600 μg/ml, control 0.93
[20] = sodium fluoride 600 μg/ml, control 0.40
[21] = CSP 40 μg/ml, triclosan 500 μg/ml, control 6.8 × 10^5
[22] = triclosan 25 μg/ml, control 1.58
[23] = triclosan 25 μg/ml, control 0.33
[24] = xylitol 15.2 mg/ml, control 0.78
[25] = xylitol 15.2 mg/ml, control 0.37
[26] = CSP 40 μg/ml, zinc citrate 1200 μg/ml, control 8 × 10^5
[27] = CSP 50 μg/ml, nisin 80 μg/ml, control 1.6 × 10^6

Molecule: [H]/N=C(\N/C(=N/[H])NCCCCCCNC(=N)NC(=N)Nc1ccc(Cl)cc1)Nc1ccc(Cl)cc1 [CHX, Chlorhexidine, reference compound]
- CPU [1, 6]: 2 × 10^6 CFU
- CFU × 10^6 [2, 7]: 1.9 CFU × 10^6
- Biofilm (OD @ 630 nm) ([3]; CHX 0.154 μg/ml, control 0.88): 1.00 OD
- Growth (OD @ 600 nm) ([4]; CHX 0.154 μg/ml, control 0.39): 0.39 OD

Molecule: O=C(O)CC(O)(CC(=O)O)C(=O)O [Citric acid, citric acid]
- CFU × 10^6 [5, 8]: 0.05 CFU × 10^6
- CPU [1, 9]: 8 × 10^4 CFU
- Biofilm (OD @ 630 nm) [3, 10]: 0.38 OD
- Growth (OD @ 600 nm) [4, 11]: 0.02 OD

Molecule: O=C(O[C@@H]1Cc2c(O)cc(O)cc2O[C@@H]1c1cc(O)c(O)c(O)c1)c1cc(O)c(O)c(O)c1 [EGCg, Epigallocatechin gallate]
- Biofilm (OD @ 630 nm) ([3]; EGCg 150 μg/ml, control 1.52): 0.41 OD
- Growth (OD @ 600 nm) ([4]; EGCg 150 μg/ml, control 0.32): 0.08 OD

Molecule: Cc1c(OCC(F)(F)F)ccnc1C[S+]([O-])c1nc2ccccc2[nH]1 (stereo not drawn) [Lansoprazole, lansoprazole, reference compound]
- CFU × 10^6 [5, 12]: 6.2 CFU × 10^6
- CPU [1, 13]: 1 × 10^6 CFU
- Biofilm (OD @ 630 nm) [3, 14]: 1.35 OD
- Growth (OD @ 600 nm) [4, 15]: 0.4 OD

Molecule: CC1(C)CC[C@]2(C(=O)O)CC[C@]3(C)C(=CC[C@@H]4[C@@]5(C)CC[C@H](O)C(C)(C)[C@@H]5CC[C@]43C)[C@@H]2C1 [OA, Oleanolic acid]
- CPU [1, 16]: 1.7 × 10^5 CFU
- Biofilm (OD @ 630 nm) ([3]; OA 2 μg/ml, control 0.8): 0.94 OD
- Growth (OD @ 600 nm) ([4]; OA 2 μg/ml, control 0.4): 0.32 OD

Molecule: [F-].[Na+] [Sodium fluoride, sodium fluoride, reference compound]
- CFU × 10^6 [5, 17]: 2.7 CFU × 10^6
- CPU [1, 18]: 7 × 10^5 CFU
- Biofilm (OD @ 630 nm) [3, 19]: 0.12 OD
- Growth (OD @ 600 nm) [4, 20]: 0.02 OD

Molecule: Oc1cc(Cl)ccc1Oc1ccc(Cl)cc1Cl [Triclosan, triclosan, reference compound]
- CPU [1, 21]: 7 × 10^2 CFU
- Biofilm (OD @ 630 nm) [3, 22]: 1.69 OD
- Growth (OD @ 600 nm) [4, 23]: 0.33 OD

Molecule: OC[C@@H](O)[C@H](O)[C@@H](O)CO [Xylitol, xylitol]
- Biofilm (OD @ 630 nm) [3, 24]: 0.32 OD
- Growth (OD @ 600 nm) [4, 25]: 0.07 OD

Molecule: O=C([O-])CC(O)(CC(=O)[O-])C(=O)[O-].O=C([O-])CC(O)(CC(=O)[O-])C(=O)[O-].[Zn+2].[Zn+2].[Zn+2] [Zinc citrate, zinc citrate]
- CPU [1, 26]: 0.8 × 10^5 CFU

Molecule: SGSLSTFFRLFNASFTQALGK (Synthetic E2) [Peptide E2, second arginine from the C' terminus substituted with alanine]
- CFU × 10^6 ([5]; chitosan 1 μg/ml, control 1.4): 0.1 CFU × 10^6
- CFU × 10^6 [5, 8]: 0.6 CFU × 10^6
- CFU × 10^6 [5, 12]: 4.3 CFU × 10^6
- CFU × 10^6 [5, 17]: 1 CFU × 10^6
- CFU × 10^6 [2, 7]: 0.9 CFU × 10^6
- CFU × 10^6 ([2]; nisin 80 μg/ml, control 2.8): 2.5 CFU × 10^6
- Biofilm (OD @ 630 nm) ([3]; CHX 0.154 μg/ml, control 0.88): 0.34 OD
- Biofilm (OD @ 630 nm) ([3]; EGCg 150 μg/ml, control 1.52): 0.92 OD
- Biofilm (OD @ 630 nm) ([3]; OA 2 μg/ml, control 0.8): 0.33 OD
- Biofilm (OD @ 630 nm) ([3]; chitosan 1 μg/ml, control 2.10): 1.18 OD
- Biofilm (OD @ 630 nm) [3, 10]: 0.54 OD
- Biofilm (OD @ 630 nm) [3, 14]: 0.4 OD
- Biofilm (OD @ 630 nm) ([3]; nisin 80 μg/ml, control 1.03): 0.24 OD
- Biofilm (OD @ 630 nm) [3, 19]: 0.16 OD
- Biofilm (OD @ 630 nm) [3, 22]: 1.00 OD
- Biofilm (OD @ 630 nm) [3, 24]: 0.34 OD
- Growth (OD @ 600 nm) ([4]; CHX 0.154 μg/ml, control 0.39): 0.11 OD
- Growth (OD @ 600 nm) ([4]; EGCg 150 μg/ml, control 0.32): 0.22 OD
- Growth (OD @ 600 nm) ([4]; OA 2 μg/ml, control 0.4): 0.26 OD
- Growth (OD @ 600 nm) ([4]; chitosan 1 μg/ml, control 0.37): 0.28 OD
- Growth (OD @ 600 nm) [4, 11]: 0.26 OD
- Growth (OD @ 600 nm) [4, 15]: 0.2 OD
- Growth (OD @ 600 nm) ([4]; nisin 80 μg/ml, control 0.36): 0.11 OD
- Growth (OD @ 600 nm) [4, 20]: 0.23 OD
- Growth (OD @ 600 nm) [4, 23]: 0.12 OD
- Growth (OD @ 600 nm) [4, 25]: 0.12 OD

Molecule: SGSLSTFFRLFNRSFTQALGK (Streptococcus mutans) [CSP]
- CPU ([1]; CSP 40 μg/ml, chitosan 0.25 μg/ml, control 7.6 × 10^5): 2.2 × 10^5 CFU
- CPU [1, 6]: 0.1 × 10^6 CFU
- CPU [1, 9]: 2 × 10^4 CFU
- CPU [1, 13]: 1.4 × 10^6 CFU
- CPU [1, 16]: 2 × 10^4 CFU
- CPU [1, 18]: 1.7 × 10^5 CFU
- CPU [1, 21]: 7 × 10^4 CFU
- CPU [1, 26]: 0.5 × 10^5 CFU
- CPU [1, 27]: 1 × 10^6 CFU

Molecule: nisin
- CPU [1, 27]: 1 × 10^6 CFU
- CFU × 10^6 ([2]; nisin 80 μg/ml, control 2.8): 3.0 CFU × 10^6
- Biofilm (OD @ 630 nm) ([3]; nisin 80 μg/ml, control 1.03): 0.6 OD
- Growth (OD @ 600 nm) ([4]; nisin 80 μg/ml, control 0.36): 0.23 OD
